Assay results published in US20080153756A1, “Novel Peptides and Methods for the Treatment of Inflammatory Disorders” (Auckland Uniservices Limited, priority 2005, published 2008).
Ends that are not written are not given here.

Legend:
[1] = system: adhesion of Mn++-activated TK-1 cells (α4+ β7+ β1−) to VCAM-1; assay: Cell adhesion assay: Mn2+-activated TK-1 cells to VCAM-1-Fc coated wells; type: cell-based, mouse; conditions: for maximal inhibition of adhesion to VCAM-1 / inhibition of cell adhesion to VCAM-1: Mn++-activated TK-1 cells; for inhibition of cell adhesion to VCAM-1: highest concentration tested, 50 μM
Experimental: The soluble VCAM-1-Fc chimera was produced using the glutamine synthetase gene amplification system. The extracellular portions of human VCAM-1 fused to the Fc domain of human IgG1 was expressed from the pEE14 vector (kindly provided by Dr Chris Bebbington, Celltech Ltd, UK) in CHO K1 cells as described previously (27).
(§1) Lab-Tek 16-well glass slides (Nunc) or flat-bottom 96-well plates (Nunc Maxisorp) were coated overnight at 4° C. with purified VCAM-1-Fc at 10 μg/well in 100 μl of 0.1 M carbonate buffer (pH 9.5). After washing plates were blocked with 100% heat-inactivated FCS, and washed with Hanks balanced salt solution (HBSS) containing 10 mM Hepes, 2 mM Ca^2+ and 2 mM Mn^2+. TK-1 cells were either left unlabeled or labeled with the fluorescent dye chloromethyl fluorescein diacetate (CMFDA; Molecular Probes, Oreg.). For peptide inhibition studies, TK-1 cells were preincubated with peptide in serum-free medium for 30 min at 37° C. and activated by suspension in an Mn^2+-containing buffer (HBSS: 10 mM Hepes containing 2 mM Ca^2+, 2 mM Mn^2+, and 2% FCS). Human IgG1 Ab (10 μg/ml; Sigma) was added to prevent nonspecific capture of cells to the Fc portion of […]. Cells were checked for viability by trypan blue exclusion, added to wells (10^6 cells/well), and incubated for 30 min at 37° C. in a humidified atmosphere of 5% CO2. Non-adherent cells were removed by inverse centrifugation of the plates at 70×g for 5 min followed by gentle pipette washing. The number of unlabeled adherent cells was determined by counting the number of adherent cells in four independent fields at 100× magnification under an inverted microscope. The fluorescence of CMFDA-labeled adherent cells was measured using a VICTOR 1420 multilabel counter (Wallac). Representative data are reported as mean±SD of two independent experiments performed in duplicate. Antibodies against the integrin β7 subunit (Fib504 mAb), and α4β7 complex (DATK32 mAb) were included as positive controls, and added (1:100 dilution of ascites) to cells 20 min prior to the adhesion assay.

[2] = system: adhesion of TK-1 (α4β7+ α4β1−) cells to MAdCAM-1; assay: Cell adhesion assay: TK-1 cells to MAdCAM-1-Fc coated plates; type: cell-based, mouse; conditions: PMA-activated TK-1 cells, peptide up to 50 μM
TK-1 cells = assay: Cell viability of peptide-treated TK-1 cells (trypan blue exclusion); type: cell-based, mouse; conditions: data not shown
Experimental: as §1, with “Non-adherent cells were removed by inverse centrifugation of the plates at 70×g for 5 min followed by gentle pipette washing.” left out, “Representative data are reported as mean±SD of two independent experiments performed in duplicate. Antibodies against the integrin β7 subunit (Fib504 mAb), and α4β7 complex (DATK32 mAb) were included as positive controls, and added (1:100 dilution of ascites) to cells 20 min prior to the adhesion assay.” left out

[3] = biological target: T1, soluble VCAM-1-Fc chimera (extracellular portions of human VCAM-1 fused to the Fc domain of human IgG1) (human, UniProt P19320 25-698); assay: cell-based or functional assay
T1 sequence (looked up): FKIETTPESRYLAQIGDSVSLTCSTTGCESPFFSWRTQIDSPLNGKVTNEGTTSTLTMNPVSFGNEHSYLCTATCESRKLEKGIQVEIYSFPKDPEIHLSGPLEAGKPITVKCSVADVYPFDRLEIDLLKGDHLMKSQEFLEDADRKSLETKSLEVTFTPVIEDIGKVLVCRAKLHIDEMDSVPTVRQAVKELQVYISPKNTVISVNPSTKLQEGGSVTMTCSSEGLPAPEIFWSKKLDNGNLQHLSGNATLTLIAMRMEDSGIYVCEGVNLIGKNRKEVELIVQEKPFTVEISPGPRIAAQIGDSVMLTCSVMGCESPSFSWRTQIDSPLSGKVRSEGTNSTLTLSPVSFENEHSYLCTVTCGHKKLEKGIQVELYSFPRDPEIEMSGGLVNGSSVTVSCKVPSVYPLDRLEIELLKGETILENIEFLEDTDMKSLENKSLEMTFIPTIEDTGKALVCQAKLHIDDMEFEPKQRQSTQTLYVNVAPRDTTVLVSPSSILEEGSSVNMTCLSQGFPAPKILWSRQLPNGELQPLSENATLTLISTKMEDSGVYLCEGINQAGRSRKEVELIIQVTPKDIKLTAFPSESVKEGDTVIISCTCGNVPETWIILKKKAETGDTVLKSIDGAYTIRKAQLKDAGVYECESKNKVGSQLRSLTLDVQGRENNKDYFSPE

CC[C@H](C)[C@H](NC(=O)[C@H](Cc1ccc(O)cc1)NC(=O)[C@H](CO)NC(=O)[C@H](Cc1c[nH]c2ccccc12)NC(=O)[C@H](CO)NC(=O)[C@H](CC(=O)O)NC(=O)[C@H](CCCCN)NC(=O)[C@H](CCCCN)NC(=O)[C@H](Cc1c[nH]c2ccccc12)NC(=O)[C@H](CCCCN)NC(=O)[C@H](CCSC)NC(=O)[C@H](CCCNC(=N)N)NC(=O)[C@H](CCCNC(=N)N)NC(=O)[C@H](CC(N)=O)NC(=O)[C@H](CCC(N)=O)NC(=O)[C@H](Cc1ccccc1)NC(=O)[C@H](Cc1c[nH]c2ccccc12)NC(=O)[C@@H](NC(=O)[C@H](CCCCN)NC(=O)[C@@H](NC(=O)[C@H](CCC(N)=O)NC(=O)[C@@H](N)CCCNC(=N)N)[C@@H](C)CC)[C@@H](C)CC)C(=O)N[C@@H](CC(N)=O)C(=O)N[C@@H](CO)C(=O)N[C@@H](CCCCN)C(=O)N[C@@H](CO)C(=O)N[C@@H](CC(N)=O)C(=O)N[C@@H](CC(=O)O)C(=O)N[C@@H](CC(=O)O)C(=O)O [Pen-DSWSYINSKSNDD, DSWSYINSKSNDD]
inhibition of T cell adhesion to VCAM-1 (in words) ([1]; Mn2+-activated TK-1 cells, FIG. 2A): active
maximal inhibition of adhesion to VCAM-1 ([1]; at 30 μM): 72%

DSWS
inhibition of PMA-induced T cell adhesion to MAdCAM-1 (in words) [2]: inactive

DSWSY [r9-DSWSY]
inhibition of cell adhesion to VCAM-1 [1]: 75%

DSWSYINS (not fully specified (N-terminus); also: N-terminal carrier biotinylated penetratin or r9, not given here for this peptide; listed as Homo sapiens) [r9-DSWSYINS]
maximal inhibition of adhesion to VCAM-1 ([1]; at 6 μM peptide): ~67%
cells killed (TK-1 cells; 50 μM peptide): 15%

KSNDD ({biotinylated r9}-KSNDD; listed as Homo sapiens) [r9-KSNDD]
inhibition of cell adhesion to VCAM-1 [1]: 27%

QYKSILQEENRRD [Pen-QYKSILQEENRRD]
inhibition of cell adhesion to VCAM-1 [1]: 14%

SWSY (listed as Homo sapiens)
inhibition of PMA-induced T cell adhesion to MAdCAM-1 (in words) [2]: retained the ability of the parent peptide DSWSY to inhibit T cell adhesion

YINSK ({biotinylated r9}-YINSK; listed as Homo sapiens) [r9-YINSK]
inhibition of cell adhesion to VCAM-1 [1]: 80%

YINSKSNDD (not fully specified (N-terminus); also: N-terminal carrier biotinylated penetratin or r9, not given here for this peptide; listed as Homo sapiens) [r9-YINSKSNDD]
maximal inhibition of adhesion to VCAM-1 ([1]; at 6 μM peptide): ~67%
effect on cell viability (in words) (TK-1 cells): no effect

B1: integrin α4β7 on mouse TK-1 T lymphoma cells (α4β7+ α4β1-) (receptor)
chain 1: YNLDPENALLYQGPSGTLFGYSVVLHSHGSKRWLIVGAPTASWLSNASVVNPGAIYRCGIRKNPNQTCEQLQSGSPSGEPCGKTCLEERDNQWLGVTLSRQPGENGSIVTCGHRWKNIFYMKSDNKLPTGICYVMPSDLRTELSKRMAPCYKDYTRKFGENFASCQAGISSFYTQDLIVMGAPGSSYWTGTVFVYNITTNQYKAFVDRQNQVKFGSYLGYSVGAGHFRSPHTTEVVGGAPQHEQIGKAYIFSIDENELNIVYEMKGKKLGSYFGASVCAVDLNADGFSDLLVGAPMQSTIREEGRVFVYINSGMGAVMVEMERVLVGSDKYAARFGESIANLGDIDNDGFEDIAIGAPQEDDLRGAVYIYNGRVDGISSTYSQRIEGQQISKSLRMFGQSISGQIDADNNGYVDVAVGAFQSDSAVLLRTRPVVIVEASLSHPESVNRTKFDCTENGLPSVCMHLTLCFSYKGKEVPGYIVLFYNVSLDVHRKAESPSRFYFFSNGTSDVITGSIRVSSSGEKCRTHQAFMRKDVRDILTPIHVEATYHLGHHVITKRNTEEFPPLQPILQQKKEKDVIRKMINFARFCAYENCSADLQVSAKVGFLKPYENKTYLAVGSMKTIMLNVSLFNAGDDAYETTLNVQLPTGLYFIKILDLEEKQINCEVTESSGIVKLACSLGYIYVDRLSRIDISFLLDVSSLSRAHEDLSISVHASCENEGELDQVRDNRVTLTIPLRYEVMLTVHGLVNPTSFVYGSSEENEPETCMAEKLNLTFHVINTGISMAPNVSVKIMVPNSFLPQDDKLFNVLDVQTTTGQCHFKHYGRECTFAQQKGIAGTLTDIVKFLSKTDKRLLYCMKADQHCLDFLCNFGKMESGKEASVHIQLEGRPSILEMDETSSLKFEIKATAFPEPHPKVIELNKDENVAHVFLEGLHHQRPKRHFTIIIITISLLLGLIVLLLISCVMWKAGFFKRQYKSILQEENRRDSWSYVNSKSNDD
chain 2: ELDTKITSSGEAAEWEDPDLSLQGSCQPVPSCQKCILSHPSCAWCKQLNFTASGEAEARRCARREELLARGCPAQELEEPRGRQEVLQDKPLSQGDRGEGATQLAPQRIRVTLRPGEPQKFRVRFLRAAGYPVDLYYLMDLSYSMKDDLERVRQLGHALLVRLQEVTHSVRIGFGSFVDKTVLPFVSTVPSKLHHPCPSRLERCQPPFSFHHVLSLTGDAQAFEREVGRQNVSGNLDSPEGGFDAILQAALCQEQIGWRNVSRLLVFTSDDTFHTAGDGKLGGIFMPSDGRCHLDSNGVYTNSAEFDYPSVGQVAQALTAANIQPIFAVTGATLPVYQELRQLIPKSAVGELSEDSSNVVQLIMDAYDSLSSTVTLEHSPLPPGVSISFESHCKGPEKTEGEAGDRGQCNDVRVNQTVDFWVTLQATHCLPEAHVLRLWALGFSEELTVELHTVCDCNCGDAQPHAPYCSDGQGDLQCGICSCAPGRLGQLCECSEADLSSPDLESGCRAPNGTGPLCSGKGRCQCGRCSCSGQSSGRLCECDDASCERHEGILCGGFGHCQCGVCHCHANHTGRACECSKSVDSCVSPEGGLCSGHGYCKCNRCQCLDGYYGALCDQCLGCKSPCEQYRDCAECGAFGTGPLAANCSVVCADVNVTLTLAPNLDDGWCKERTIDNQLFFFLVEHAASGIVLRVRPQEKGVDHTRAIILGCTGGIVAVGLGLVLAYRLSVEIYDRREYRRFEKEQQQLNWKQDNNPLYKSAITTTVNPRFQGTNGRSPSLSLTREAD
IC50 of the cell-permeable peptide Pen-… for inhibition of adhesion of Mn++-activated TK-1 cells to VCAM-1 [3]: 20 µM
